Results taken from ChEMBL document CHEMBL3885861, “Open TG-GATES”.

Species on record: Rattus norvegicus
Experiment: Open TG-GATES - Regimen: Single
Assay type: toxicity, organism-based, Sprague-Dawley
Set-up: regimen Single, gender Male, age 6 weeks
Settings: in vivo, po, 300 mg/kg, route gavage, dose level High; for APTT / Bas / Eos / Fbg / Hb / Ht / Lym / MCH / MCHC / MCV / Mono / Neu / PT / Plat / RBC / Ret / WBC: tissue Blood; for KIDNEY_L / KIDNEY_R / KIDNEY_TOTAL: tissue Kidney; for LIVER: tissue Liver; for A/G / ALP / ALT / AST / BUN / CRE / Ca / Cl / DBIL / GLC / IP / K / LDH / Na / PL / RALB / TBIL / TC / TG / TP / gamma-GTP: tissue Plasma

Cc1ccc(C)c(OCCCC(C)(C)C(=O)O)c1 [GEMFIBROZIL]
TERMINAL_BW (3 h): 224.5 g | APTT (3 h): 15.3 s | Bas (3 h): 0% | Eos (3 h): 0.4% | Fbg (3 h): 299.8 mg/dL | Hb (3 h): 13.9 g/dL | Ht (3 h): 40.1% | Lym (3 h): 74% | MCH (3 h): 22.2 pg | MCHC (3 h): 34.6% | MCV (3 h): 64.1 fL | Mono (3 h): 3.2% | Neu (3 h): 20.8% | PT (3 h): 12.2 s | Plat (3 h): 122 x10_4/uL | RBC (3 h): 625.6 x10_4/ul | Ret (3 h): 7.4% | WBC (3 h): 74.7 x10_2/uL | KIDNEY_L (3 h): 0.9 g | KIDNEY_R (3 h): 1 g | KIDNEY_TOTAL (3 h): 1.9 g | LIVER (3 h): 9.5 g | A/G (3 h): 0.8 | ALP (3 h): 1942.2 IU/L | ALT (3 h): 47 IU/L | AST (3 h): 75.6 IU/L | BUN (3 h): 13 mg/dL | CRE (3 h): 0.2 mg/dL | Ca (3 h): 11.4 mg/dL | Cl (3 h): 104.6 meq/L | DBIL (3 h): 0.2 mg/dL | GLC (3 h): 168 mg/dL | IP (3 h): 9.9 mg/dL | K (3 h): 4.4 meq/L | LDH (3 h): 75.6 IU/L | Na (3 h): 141.2 meq/L | PL (3 h): 188.8 mg/dL | RALB (3 h): 2.7 g/dL | TBIL (3 h): 0.082 mg/dL | TC (3 h): 83.6 mg/dL | TG (3 h): 320 mg/dL | TP (3 h): 5.8 g/dL | gamma-GTP (3 h): 1.2 IU/L | TERMINAL_BW (6 h): 222.4 g | APTT (6 h): 14.3 s | Bas (6 h): 0% | Eos (6 h): 0.6% | Fbg (6 h): 305.6 mg/dL | Hb (6 h): 13.7 g/dL | Ht (6 h): 40% | Lym (6 h): 77.4% | MCH (6 h): 21 pg | MCHC (6 h): 34.2% | MCV (6 h): 61.3 fL | Mono (6 h): 3.4% | Neu (6 h): 17.8% | PT (6 h): 11.8 s | Plat (6 h): 122.9 x10_4/uL | RBC (6 h): 651.8 x10_4/ul | Ret (6 h): 6.7% | WBC (6 h): 77.1 x10_2/uL | KIDNEY_L (6 h): 0.9 g | KIDNEY_R (6 h): 0.9 g | KIDNEY_TOTAL (6 h): 1.8 g | LIVER (6 h): 8.5 g | A/G (6 h): 0.9 | ALP (6 h): 1762.4 IU/L | ALT (6 h): 44.2 IU/L | AST (6 h): 76.2 IU/L | BUN (6 h): 9.8 mg/dL | CRE (6 h): 0.2 mg/dL | Ca (6 h): 11.4 mg/dL | Cl (6 h): 106.4 meq/L | DBIL (6 h): 0.1 mg/dL | GLC (6 h): 171.2 mg/dL | IP (6 h): 10.8 mg/dL | K (6 h): 4.3 meq/L | LDH (6 h): 61.6 IU/L | Na (6 h): 142.6 meq/L | PL (6 h): 171.2 mg/dL | RALB (6 h): 2.7 g/dL | TBIL (6 h): 0.086 mg/dL | TC (6 h): 88.2 mg/dL | TG (6 h): 121 mg/dL | TP (6 h): 5.5 g/dL | gamma-GTP (6 h): 1.2 IU/L | TERMINAL_BW (9 h): 224.1 g | APTT (9 h): 15 s | Bas (9 h): 0% | Eos (9 h): 0.6% | Fbg (9 h): 306.4 mg/dL | Hb (9 h): 13.7 g/dL | Ht (9 h): 40.2% | Lym (9 h): 75.2% | MCH (9 h): 21.8 pg | MCHC (9 h): 34.1% | MCV (9 h): 64.1 fL | Mono (9 h): 2.4% | Neu (9 h): 21% | PT (9 h): 11.9 s | Plat (9 h): 117.7 x10_4/uL | RBC (9 h): 628 x10_4/ul | Ret (9 h): 7.8% | WBC (9 h): 52.7 x10_2/uL | KIDNEY_L (9 h): 1 g | KIDNEY_R (9 h): 0.9 g | KIDNEY_TOTAL (9 h): 1.9 g | LIVER (9 h): 8.3 g | A/G (9 h): 0.9 | ALP (9 h): 1746.4 IU/L | ALT (9 h): 38.8 IU/L | AST (9 h): 68 IU/L | BUN (9 h): 10.6 mg/dL | CRE (9 h): 0.2 mg/dL | Ca (9 h): 11.3 mg/dL | Cl (9 h): 106.2 meq/L | DBIL (9 h): 0.1 mg/dL | GLC (9 h): 177.6 mg/dL | IP (9 h): 11.8 mg/dL | K (9 h): 4.3 meq/L | LDH (9 h): 59.4 IU/L | Na (9 h): 143.2 meq/L | PL (9 h): 143.8 mg/dL | RALB (9 h): 2.7 g/dL | TBIL (9 h): 0.076 mg/dL | TC (9 h): 73.2 mg/dL | TG (9 h): 59.6 mg/dL | TP (9 h): 5.7 g/dL | gamma-GTP (9 h): 1.4 IU/L | TERMINAL_BW (24 h): 224.7 g | APTT (24 h): 14.7 s | Bas (24 h): 0% | Eos (24 h): 0.8% | Fbg (24 h): 320.4 mg/dL | Hb (24 h): 13.6 g/dL | Ht (24 h): 39.5% | Lym (24 h): 80% | MCH (24 h): 21.5 pg | MCHC (24 h): 34.4% | MCV (24 h): 62.6 fL | Mono (24 h): 3.4% | Neu (24 h): 15.2% | PT (24 h): 12.2 s | Plat (24 h): 102.6 x10_4/uL | RBC (24 h): 631.8 x10_4/ul | Ret (24 h): 6.3% | WBC (24 h): 73.6 x10_2/uL | KIDNEY_L (24 h): 1 g | KIDNEY_R (24 h): 1 g | KIDNEY_TOTAL (24 h): 2 g | LIVER (24 h): 10.9 g | A/G (24 h): 1 | ALP (24 h): 2167.4 IU/L | ALT (24 h): 46.4 IU/L | AST (24 h): 74 IU/L | BUN (24 h): 12.8 mg/dL | CRE (24 h): 0.2 mg/dL | Ca (24 h): 11.3 mg/dL | Cl (24 h): 105.6 meq/L | DBIL (24 h): 0.1 mg/dL | GLC (24 h): 189 mg/dL | IP (24 h): 8 mg/dL | K (24 h): 4 meq/L | LDH (24 h): 74.8 IU/L | Na (24 h): 141.8 meq/L | PL (24 h): 124 mg/dL | RALB (24 h): 2.7 g/dL | TBIL (24 h): 0.06 mg/dL | TC (24 h): 63.6 mg/dL | TG (24 h): 67.2 mg/dL | TP (24 h): 5.5 g/dL | gamma-GTP (24 h): 1.2 IU/L
